Laboratory results from publication PMC6789456, “Ursolic Acid Derivatives as Potential Agents Against Acanthamoeba Spp” (Pathogens, 2019).

What was measured:
Acanthamoeba griffini = experiment: In vitro effect against the trophozoite stage, Alamar Blue assay; format: cell-based; conditions: 96 h, trophozoites, mean ± SD
Description: (§1) The anti-Acanthamoeba activity of molecules was evaluated against the Acanthamoeba castellanii Neff (ATCC 30010) type strain from the American Type Culture Collection and Acanthamoeba griffini obtained in previous studies. Those strains were grown axenically in Peptone Yeast Glucose (PYG) medium (0.75% (w/v) proteose peptone, 0.75% (w/v) yeast extract, and 1.5% (w/v) glucose) containing 40 μg of gentamicin ml−1 (Biochrom AG, Cultek, Granollers, Barcelona, Spain).
(§2) The anti-Acanthamoeba activities of the compounds were determined by the Alamar Blue assay as previously described. Briefly, Acanthamoeba strains were seeded in duplicate on a 96-well microtiter plate with 50 μL from a stock solution of 10^4 cells mL^−1. Amoebae were allowed to adhere for 15 min and 50 μL of serial dilution series of the eye drop solution was added. Finally, the Alamar Blue assay reagent (Bioresource, Europe, Nivelles, Belgium) was added into each well at an amount equal to 10% of the medium volume. The plates were then incubated for 96 h at 28 °C with a slight agitation and the emitted fluorescence was measured with an Enspire microplate reader (PerkinElmer, Massachusetts, USA) at 570/585 nm.

[1] = tested on: Acanthamoeba castellanii Neff; experiment: as above; format: cell-based; conditions: for IC90: concentration used in the double-stain assay, A. castellanii Neff trophozoites; for IC50: trophozoites, Alamar blue, 96 h, mean ± SD
Description: as §1, §2

[2] = Cytotoxicity, Alamar Blue assay; format: cell-based; conditions: mouse, J774.A1 macrophage cell line (ATCC TIB-67), J774.A1, 24 h, mean ± SD, >100 if inhibition did not reach 50% at the highest concentration, read-out: Murine Macrophages CC50
Description: Cytotoxicity of the selected compounds was evaluated after 24 h incubation of murine macrophage J774.A1 cell line (ATCC # TIB-67) with different concentrations of the tested compounds at 37 °C in a 5% CO2 humidified incubator. The viability of the macrophages was determined with the Alamar Blue assay as previously described.

[3] = tested on: murine macrophage J774.A1 cell line; experiment: Cytotoxicity, Alamar Blue assay; format: cell-based; conditions: 50 µM, J774A.1, inverted microscopy, compared to 1
[4] = tested on: Acanthamoeba castellanii Neff; experiment: Mitochondrial membrane potential, JC-1; format: cell-based; conditions: treated with IC90, 24 h; for decrease of mitochondrial membrane potential (ΔΨm): ratio of fluorescence 590/530 nm
Description: The collapse of an electrochemical gradient across the mitochondrial membrane during apoptosis was detected with the JC-1 mitochondrial membrane potential detection kit (Cell Technology). After being treated with IC90 of the test solution for 24 h, the cells were centrifuged (1000 r.p.m. × 10 min) and resuspended in JC-1 buffer. After that, 100 µL of each treated culture was added to a black 96 well plate (PerkinElmer) then 10 µL of JC-1 was added and incubated at 26 °C for 30 min. Analysis for the mean green and red fluorescence intensity was done using an Enspire microplate reader (PerkinElmer, Waltham, MA, USA) after 30 minutes. As well as images were taken on an EVOS fluorescence microscope from the Advanced Microscopy Group (AMG). The staining pattern allows the identification of two groups in a cellular population: Live cells will show only red fluorescence; and cells with low mitochondrial potential, (undergoing PCD) will show a higher level of green and red fluorescence.

Acanthamoeba Neff = experiment: Intracellular ROS production, CellROX Deep Red staining; format: cell-based, Acanthamoeba castellanii; conditions: treated with IC90, 24 h, vs negative control
Description: The generation of intracellular ROS was detected using the CellROX® Deep Red fluorescent probe (Invitrogen). The cells were treated with IC90 of both 5 and 7 for 24 h and exposed to CellROX® Deep Red (5 μM, 30 min) at 26 °C in the dark.

[5] = Solubility (comparison in words); format: physicochemical; conditions: compared to the origin compound 1 (ursolic acid)
[6] = tested on: Acanthamoeba castellanii Neff trophozoite; experiment: Double-stain assay (Hoechst 33342/PI) for programmed cell death; format: cell-based; conditions: treated with IC90, 24 h; for Propidium Iodide (PI) stain: data not shown
Description: A double-stain apoptosis detection kit (Hoechst 33342/PI; GenScript, Piscataway, NJ, USA) and an inverted confocal microscope (Leica DMI 4000B) were used. The experiment was carried out by following the manufacturer’s recommendations, and 10^5 cells/well were incubated in a 24-well plate for 24 h with the previously calculated IC90. The double-staining pattern allows the identification of three groups in a cellular population: Live cells will show only a low level of fluorescence, cells undergoing PCD will show a higher level of blue fluorescence (as chromatin condenses), and dead cells will show low-blue and high-red fluorescence (as the propidium iodide stain enters the nucleus).

Acanthamoeba spp. cysts = experiment: In vitro effect against the cyst stage, Alamar Blue assay; format: cell-based; conditions: both strains, viability of cysts
Description: The cysticidal activity was determined by the Alamar Blue assay at 144 h and confirmed visually by inverted microscopy. Cysts of both strains were prepared as described by Lorenzo-Morales et al. (2008). Briefly, trophozoite were transferred from PYG medium based cultures (trophozoite medium) to Neff´s encystment medium (NEM; 0.1 M KCl, 8 mM MgSO4·7H2O, 0.4 mM CaCl2·2H2O, 1 mM NaHCO3, and 20 mM ammediol (2-amino-2-methyl-1,3-propanediol; Sigma Aldrich Chemistry Ltd., Madrid, Spain), pH 8.8, at 25 °C) and were cultured in this medium with gentle shaking for a week in order to obtain mature cysts. After that, mature cysts were harvested and washed twice using the PYG medium.
A serial dilution of the tested molecules was made in PYG. The in vitro susceptibility assay was performed in sterile 96-well microtiter plates (Corning™). To these wells the drug concentration to be tested and 5 × 10^4 mature cysts of Acanthamoeba/ml were added. The final volume was 100 μL in each well. After 7 days of incubation with the drugs, the plate was centrifuged at 3000 rpm for 10 min. […] Finally, 10 μL of the Alamar Blue assay reagent (Biosource, Europe, Nivelles, Belgium) was placed into each well, and the plates were then incubated for 144 h at 28 °C with slight agitation and the emitted fluorescence was periodically examined with an Enspire microplate reader (PerkinElmer, Waltham, MA, USA) at 570/585 nm.

| Compound | IC50 (Acanthamoeba griffini; Acanthamoeba griffini) [µM] | IC90 [1] [µM] | IC50 [1] [µM] | CC50 at 24 h [2] [µM] | effect on morphology of murine macrophages [3] | mitochondrial membrane potential, JC-1 imaging [4] | decrease of mitochondrial membrane potential (ΔΨm) [4] [%] | reactive oxygen species (ROS) levels (Acanthamoeba Neff) | solubility [5] | chromatin condensation (Hoechst 33342 stain) [6] | Propidium Iodide (PI) stain [6] | cysticidal effect (Acanthamoeba spp. cysts) | IC50 (Acanthamoeba griffini) [µM] |
| --- | --- | --- | --- | --- | --- | --- | --- | --- | --- | --- | --- | --- | --- |
| COC(=O)[C@]12CC[C@@H](C)[C@H](C)C1C1=CCC3[C@@]4(C)CC[C@H](OC)C(C)(C)C4CC[C@@]3(C)[C@]1(C)CC2 (some centres unmarked) [Compound 5] | 6.9 ± 1.5 | 86 | 22.7 ± 1.4 | > 100 | did not affect the morphology | depolarize the mitochondrial membrane potential | 49.0 | increased | higher than the origin compound 1 | induced chromatin condensation | did not stain | dose-dependent cysticidal effect | – |
| COC(=O)[C@]12CC[C@@H](C)[C@H](C)C1C1=CCC3[C@@]4(C)CC[C@H](OC(=O)c5ccccc5)C(C)(C)C4CC[C@@]3(C)[C@]1(C)CC2 (some centres unmarked) [Compound 8] | 11.5 ± 0.8 | – | 33.5 ± 2.1 | > 100 | – | – | – | – | – | – | – | – | – |
| [H]/N=C(\N/C(=N/[H])NCCCCCCNC(=N)NC(=N)Nc1ccc(Cl)cc1)Nc1ccc(Cl)cc1 [Chlorhexidine, reference compound] | 3.73 ± 0.98 | – | – | 7.4 ± 0.39 | – | – | – | – | – | – | – | – | – |
| CC(=O)O[C@H]1CC[C@@]2(C)C(CC[C@]3(C)C2CC=C2C4[C@@H](C)[C@H](C)CC[C@]4(C(=O)O)CC[C@]23C)C1(C)C (some centres unmarked) [Compound 2] | 11.1 ± 0.8 | – | 24.2 ± 0.3 | 93.2 ± 7.2 | – | – | – | – | – | – | – | – | – |
| C[C@@H]1CC[C@]2(C(=O)O)CC[C@]3(C)C(=CCC4[C@@]5(C)CCC(=O)C(C)(C)C5CC[C@]43C)C2[C@H]1C (some centres unmarked) [Compound 3] | 10.2 ± 0.5 | – | 34.9 ± 1.5 | > 100 | – | – | – | – | – | – | – | – | – |
| COC(=O)[C@]12CC[C@@H](C)[C@H](C)C1C1=CCC3[C@@]4(C)CC[C@H](O)C(C)(C)C4CC[C@@]3(C)[C@]1(C)CC2 (some centres unmarked) [Compound 4] | 8.7 ± 0.4 | – | 21.9 ± 0.9 | 26.3 ± 1.7 | – | – | – | – | – | – | – | – | – |
| C[C@H]1[C@H](C)CC[C@]2(C(=O)O)CC[C@]3(C)C(=CC[C@@H]4[C@@]5(C)CC[C@H](O)C(C)(C)[C@@H]5CC[C@]43C)[C@H]12 [Compound 1, Ursolic acid] | 15.3 | – | 40 ± 2.7 | 17.7 ± 3.3 | – | – | – | – | – | – | – | – | 15.2 ± 0.3 |
| COC(=O)[C@]12CC[C@@H](C)[C@H](C)C1C1=CCC3[C@@]4(C)CC[C@H](OC(C)=O)C(C)(C)C4CC[C@@]3(C)[C@]1(C)CC2 (some centres unmarked) [Compound 6] | 9.1 ± 1 | – | 37.1 ± 1.3 | > 100 | – | – | – | – | – | – | – | – | – |
| COC(=O)[C@]12CC[C@@H](C)[C@H](C)C1C1=CCC3[C@@]4(C)CC[C@H](OC(=O)c5ccc([N+](=O)[O-])cc5)C(C)(C)C4CC[C@@]3(C)[C@]1(C)CC2 (stereo partly drawn) [Compound 7, 3β-(p-nitrobenzoyloxy)-urs-12-en-28-oic acid methyl ester] | 6.7 ± 1.8 | 75 | 21.4 ± 1.3 | > 100 | – | depolarize the mitochondrial membrane potential | 35.0 | increased | higher than the origin compound 1 | induced chromatin condensation | did not stain | dose-dependent cysticidal effect | – |
